Measured values as given in patent publication US20140135359A1, “METHODS OF DESIGNING, PREPARING, AND USING NOVEL PROTONOPHORES” (priority 2012, published 2014).

These compounds were tested on isolated rat liver mitochondria (assay: Residual functional capacity / inhibitory effect on ADP-stimulated (state 3) oxygen consumption). Settings: not given.
Type: biochemical

Question: `O=C(O)c1ccccc1` [benzoic acid] was tested. Which “Inhibitory effect (%)” value did it give?
Answer: 4%

Question: What about the “Residual capacity (%)” value of the same compound?
Answer: 96 ± 3%

Same assay, conditions: 50 μM (FIG. 19)

Question: How did the “inhibitory effect on oxidative phosphorylation” value turn out when `COc1cc(/C=C/C(=O)c2ccc(O)cc2O)ccc1O` [homobutein] was run?
Answer: inhibition of ADP-stimulated consumption

Same assay, conditions: test conc. 25 μM

Question: How did the “Inhibitory effect (%)” value turn out when `O=c1c(O)c(-c2cc(O)c(O)c(O)c2)oc2cc(O)cc(O)c12` [myricetin] was run?
Answer: 28%

Question: How did the “Inhibitory effect (%)” value turn out when `Oc1cc(O)cc(/C=C/c2ccccc2)c1` [trans-pinosylvin, pinosylvin] was run?
Answer: 20%

Question: For `COc1cc(/C=C/C(=O)c2ccc(O)cc2O)ccc1O` [homobutein], which “Inhibitory effect (%)” value is on record?
Answer: 15%

Question: How did the “Inhibitory effect (%)” value turn out when `Oc1ccc(C=Cc2cc(O)cc(O)c2)cc1` [resveratrol (trans)] was run?
Answer: 29%

Question: How did the “Inhibitory effect (%)” value turn out when `O=c1c(-c2ccc(O)cc2)coc2cc(O)cc(O)c12` [genistein] was run?
Answer: 15%

Same assay, conditions: test conc. 25 μM; functional capacity (state 3 minus state 4 rate) as % of vehicle-treated mitochondria

Question: For `O=c1c(O)c(-c2cc(O)c(O)c(O)c2)oc2cc(O)cc(O)c12` [myricetin], which “Residual capacity (%)” value is on record?
Answer: 66 ± 2%

Question: Which “Residual capacity (%)” value does the source give for `Oc1cc(O)cc(/C=C/c2ccccc2)c1` [trans-pinosylvin, pinosylvin] here?
Answer: 80 ± 13%

Question: With `COc1cc(/C=C/C(=O)c2ccc(O)cc2O)ccc1O` [homobutein] as the compound, how does the “Residual capacity (%)” value read?
Answer: 79 ± 7%

Question: How did the “Residual capacity (%)” value turn out when `Oc1ccc(C=Cc2cc(O)cc(O)c2)cc1` [resveratrol (trans)] was run?
Answer: 71 ± 9%

Question: Which “Residual capacity (%)” value does the source give for `O=c1c(-c2ccc(O)cc2)coc2cc(O)cc(O)c12` [genistein] here?
Answer: 77 ± 1%

Same assay, conditions: test conc. 100 μM

Question: How did the “Inhibitory effect (%)” value turn out when `O=c1c(O)c(-c2cc(O)c(O)c(O)c2)oc2cc(O)cc(O)c12` [myricetin] was run?
Answer: 43%

Question: `Oc1cccc(O)c1` [resorcinol] was tested. Which “Inhibitory effect (%)” value did it give?
Answer: 9%

Question: How did the “Inhibitory effect (%)” value turn out when `O=C(O)c1ccccc1O` [salicylic acid] was run?
Answer: 6%

Question: `Oc1cc(O)cc(/C=C/c2ccccc2)c1` [trans-pinosylvin, pinosylvin] was tested. Which “Inhibitory effect (%)” value did it give?
Answer: 34%

Question: With `COc1cc(/C=C/C(=O)c2ccc(O)cc2O)ccc1O` [homobutein] as the compound, how does the “Inhibitory effect (%)” value read?
Answer: 22%

Question: `Oc1ccc(C=Cc2cc(O)cc(O)c2)cc1` [resveratrol (trans)] was tested. Which “Inhibitory effect (%)” value did it give?
Answer: 62%

Question: For `O=c1c(-c2ccc(O)cc2)coc2cc(O)cc(O)c12` [genistein], which “Inhibitory effect (%)” value is on record?
Answer: 6%

Same assay, conditions: test conc. 100 μM; functional capacity (state 3 minus state 4 rate) as % of vehicle-treated mitochondria

Question: For `O=c1c(O)c(-c2cc(O)c(O)c(O)c2)oc2cc(O)cc(O)c12` [myricetin], which “Residual capacity (%)” value is on record?
Answer: 46 ± 3%

Question: For `Oc1cccc(O)c1` [resorcinol], which “Residual capacity (%)” value is on record?
Answer: 91 ± 3%

Question: For `O=C(O)c1ccccc1O` [salicylic acid], which “Residual capacity (%)” value is on record?
Answer: 90 ± 2%

Question: Which “Residual capacity (%)” value does the source give for `Oc1cc(O)cc(/C=C/c2ccccc2)c1` [trans-pinosylvin, pinosylvin] here?
Answer: 63 ± 4%

Question: With `COc1cc(/C=C/C(=O)c2ccc(O)cc2O)ccc1O` [homobutein] as the compound, how does the “Residual capacity (%)” value read?
Answer: 22 ± 3%

Question: With `Oc1ccc(C=Cc2cc(O)cc(O)c2)cc1` [resveratrol (trans)] as the compound, how does the “Residual capacity (%)” value read?
Answer: 36 ± 4%

Question: `O=c1c(-c2ccc(O)cc2)coc2cc(O)cc(O)c12` [genistein] was tested. Which “Residual capacity (%)” value did it give?
Answer: 20 ± 0%

Each compound was assayed on isolated rat liver mitochondria (assay: Uncoupling activity: increase in basal (state 4) oxygen consumption by oxygraphy). Settings: not given.
Type: biochemical

Question: Which results are given for `O=C(O)c1ccccc1` [benzoic acid]?
Answer: Measured Uncoupling Activity (% uncoupling ± SEM @ 100 μM): 0 ± 1 % uncoupling; Uncoupling (%): 0 ± 1%

Same assay, conditions: 50 μM in 0.1% DMSO (FIG. 19)

Question: `COc1cc(/C=C/C(=O)c2ccc(O)cc2O)ccc1O` [homobutein] was tested. Which uncoupling activity did it give?
Answer: partial uncoupling

Same assay, conditions: Suppl. Table 1; 100 μM; 2-3 mitochondrial preparations

Question: How did the “Measured Uncoupling Activity (% uncoupling ± SEM @ 100 μM)” value turn out when `O=c1c(O)c(-c2cc(O)c(O)c(O)c2)oc2cc(O)cc(O)c12` [myricetin] was run?
Answer: 11 ± 0 % uncoupling

Question: How did the “Measured Uncoupling Activity (% uncoupling ± SEM @ 100 μM)” value turn out when `Oc1cccc(O)c1` [resorcinol] was run?
Answer: 0 ± 0 % uncoupling

Question: With `O=C(O)c1ccccc1O` [salicylic acid] as the compound, how does the “Measured Uncoupling Activity (% uncoupling ± SEM @ 100 μM)” value read?
Answer: 4 ± 0 % uncoupling

Question: With `Oc1cc(O)cc(/C=C/c2ccccc2)c1` [trans-pinosylvin, pinosylvin] as the compound, how does the “Measured Uncoupling Activity (% uncoupling ± SEM @ 100 μM)” value read?
Answer: 3 ± 3 % uncoupling

Question: `COc1cc(/C=C/C(=O)c2ccc(O)cc2O)ccc1O` [homobutein] was tested. Which “Measured Uncoupling Activity (% uncoupling ± SEM @ 100 μM)” value did it give?
Answer: 56 ± 5 % uncoupling

Question: For `O=c1c(-c2ccc(O)cc2)coc2cc(O)cc(O)c12` [genistein], which “Measured Uncoupling Activity (% uncoupling ± SEM @ 100 μM)” value is on record?
Answer: 74 ± 4 % uncoupling

Same assay, conditions: Table 1A; 100 μM; relative to ADP-stimulated respiration = 100%

Question: How did the “Measured Uncoupling (% uncoupling ± SEM @ 100 μM)” value turn out when `COc1cc(/C=C/C(=O)c2ccc(O)cc2O)ccc1O` [homobutein] was run?
Answer: 56 ± 5 % uncoupling

Question: With `O=c1c(-c2ccc(O)cc2)coc2cc(O)cc(O)c12` [genistein] as the compound, how does the “Measured Uncoupling (% uncoupling ± SEM @ 100 μM)” value read?
Answer: 74 ± 4 % uncoupling

Same assay, conditions: test conc. 25 μM; increase in basal (state 4) oxygen consumption as % of average ADP-stimulated (state 3) rate in vehicle-treated mitochondria

Question: With `O=c1c(O)c(-c2cc(O)c(O)c(O)c2)oc2cc(O)cc(O)c12` [myricetin] as the compound, how does the “Uncoupling (%)” value read?
Answer: 6 ± 3%

Question: `Oc1cc(O)cc(/C=C/c2ccccc2)c1` [trans-pinosylvin, pinosylvin] was tested. Which “Uncoupling (%)” value did it give?
Answer: 0 ± 1%

Question: How did the “Uncoupling (%)” value turn out when `COc1cc(/C=C/C(=O)c2ccc(O)cc2O)ccc1O` [homobutein] was run?
Answer: 6 ± 0%

Question: For `Oc1ccc(C=Cc2cc(O)cc(O)c2)cc1` [resveratrol (trans)], which “Uncoupling (%)” value is on record?
Answer: 0 ± 0%

Question: With `O=c1c(-c2ccc(O)cc2)coc2cc(O)cc(O)c12` [genistein] as the compound, how does the “Uncoupling (%)” value read?
Answer: 8 ± 0%

Same assay, conditions: test conc. 100 μM; increase in basal (state 4) oxygen consumption as % of average ADP-stimulated (state 3) rate in vehicle-treated mitochondria

Question: For `O=c1c(O)c(-c2cc(O)c(O)c(O)c2)oc2cc(O)cc(O)c12` [myricetin], which “Uncoupling (%)” value is on record?
Answer: 11 ± 0%

Question: With `Oc1cccc(O)c1` [resorcinol] as the compound, how does the “Uncoupling (%)” value read?
Answer: 0 ± 0%

Question: With `O=C(O)c1ccccc1O` [salicylic acid] as the compound, how does the “Uncoupling (%)” value read?
Answer: 4 ± 0%

Question: How did the “Uncoupling (%)” value turn out when `Oc1cc(O)cc(/C=C/c2ccccc2)c1` [trans-pinosylvin, pinosylvin] was run?
Answer: 3 ± 3%

Question: For `COc1cc(/C=C/C(=O)c2ccc(O)cc2O)ccc1O` [homobutein], which “Uncoupling (%)” value is on record?
Answer: 56 ± 5%

Question: `Oc1ccc(C=Cc2cc(O)cc(O)c2)cc1` [resveratrol (trans)] was tested. Which “Uncoupling (%)” value did it give?
Answer: 2 ± 0%

Question: `O=c1c(-c2ccc(O)cc2)coc2cc(O)cc(O)c12` [genistein] was tested. Which “Uncoupling (%)” value did it give?
Answer: 74 ± 4%
